According to patent publication US20260191853A1, “METHOD OF TREATING DRUG-INDUCED BRADYARRHYTHMIA” (OSAKA UNIVERSITY, priority 2022, published 2026):
“Also recorded” adds a separate entry of the source.

Tests used:
[1] = test system: Hartley guinea pigs; assay: Preventive effect on siponimod-induced bradyarrhythmia in isoflurane-anesthetized guinea pig model; type: in vivo
Protocol: A solvent or compound (I) (free form) was administered by oral gavage at a dose of 0.3. 1, or 3 mg/kg (volume: 5 mL/kg) to Hartley guinea pigs (7 to 10 weeks old, male, available from Japan SLC, Inc.). After completion of the administration, each animal was subjected to anesthetic induction by inhalation of isoflurane (available from Pfizer Japan Inc.), and the animal was held on an operating table having a heater function. The trachea was incised, and a tracheal cannula (KN-375, available from Natsume Seisakusho Co., Ltd.) was inserted. The tracheal cannula was connected to a ventilator (SN-480-7, available from Shinano Seisakusho Co., Ltd.), and artificial respiration was controlled by supplying 100% oxygen at a volume of 10 mL and a ventilation rate of 60 times/minute. The solvent used was 0.5 w/v % methyl cellulose 400 solution (available from FUJIFILM Wako Pure Chemical Corporation). Isoflurane (available from Pfizer Japan Inc.) anesthesia (about 1 to 4%, carrier gas: 100% oxygen) was used for maintenance of anesthesia. A catheter (BD intramedic polyethylene tubing PE50, available from Becton, Dickinson and Company) charged with 50 units/mL heparin (available from AY PHARMACEUTICALS CO., LTD.) was inserted into each of the carotid artery and the jugular vein and placed in the blood vessel. Systemic blood pressure was measured with a high-sensitivity DC amplifier (AD-611J, available from NIHON KOHDEN CORPORATION) via the catheter placed in the carotid artery. Electrodes were attached to the body surface, and a body surface electrocardiogram was measured with a high-sensitivity amplifier (AB-611J, available from NIHON KOHDEN CORPORATION). Blood pressure and electrocardiogram data were acquired and analyzed with PowerLab/Labchart system (available from ADInstruments). Analysis items are systolic blood pressure, diastolic blood pressure, average blood pressure, heart rate, P-wave width, PR interval, QRS width, QT interval, and corrected QT interval. Corrected QT interval was calculated using the Fridericia formula (QTc=QT interval/RR interval^1/3). After stabilization of each parameter, siponimod (synthesized according to WO 2017/120124) was continuously administered intravenously at 0.01 mg/kg for 10 minutes via the catheter placed in the jugular vein, followed by observation of the presence or absence of the onset of bradyarrhythmia for 60 minutes. The solvent used was a solution prepared by mixing of Polyethylene Glycol 400 (available from KANTO CHEMICAL CO., INC.) and dimethyl sulfoxide (available from FUJIFILM Wako Pure Chemical Corporation) at 9: 1 (volume ratio). Data were recorded and blood was collected 5, 10, 15, 20, 30, and 60 minutes after initiation of administration of siponimod. The observation was terminated 60 minutes after initiation of the administration, and the animal was euthanized by exsanguination or intravenous administration of a large amount of saturated potassium chloride solution under isoflurane anesthesia. Data were analyzed for atrial beating rate over time, ventricular beating rate over time, electrocardiographic parameters, the presence or absence of the onset of atrioventricular block, and plasma concentrations of compound (I) and siponimod. The plasma was collected by centrifuging the blood and cryopreserved at about −20° C. After thawing of the plasma, plasma drug concentrations were measured using LC/MS/MS after deproteinization with acetonitrile.
In FIG. 3, the measurements are shown as mean±standard error. Abbreviations, etc. are as follows. • (I): compound (I) • Atrioventricular block: the presence or absence of atrioventricular block • (x denotes second- or third-degree atrioventricular block) • PR & QRS: atrioventricular conduction time and ventricular activation time • QT & QTcF: ventricular repolarization time and heart rate-corrected ventricular repolarization time • Plasma concentration: the plasma concentration of siponimod or compound (I)

[2] = test system: human iPS cell-derived atrial myocytes; assay: Siponimod-induced decrease in beating rate in human iPS cell-derived atrial myocytes (multi-electrode array); type: cell-based; details: 0.1 μM compound (I) added after 0.1 μM siponimod, observed 10 minutes; FIG. 6
Protocol: Cryopreserved human iPS cell-derived atrial myocytes (Human iPSC-derived atrial cardiomyocytes, available from Axol Bioscience) were thawed and seeded at 1,400,000 cells/well on a fibronectin-coated 6-well plate, followed by culturing in an incubator at 37° C. and 5% CO2 for 11 days. During the culture, the entire amount of medium was changed every other day. After the elapse of 11 days, human iPS cell-derived atrial myocytes that started beating were removed from the plate and recovered with TrypLE Select Enzyme (available from ThermoFisher Scientific). The atrial myocytes were seeded at 25,000 cells/2 μL on a fibronectin-coated 6-well MEA Chip (60-6well MEA200/30iR-Ti-tcr, available from Multi Channel Systems) and cultured in an incubator at 37° C. and 5% CO2 for one hour. Thereafter, 400 μL of medium was added and cultured in an incubator at 37° C. and 5% CO2 for 13 days. During the culture, a half amount of the medium was changed every other day. After the elapse of […], the MEA Chip was set in a multi-electrode array system (MEA2100, available from Multi Channel Systems) to thereby obtain extracellular potentials under spontaneous beating. […] Data were analyzed with Labchart System (available from ADInstruments).
In FIG. 6, the measurements are shown as mean±standard error, and (I) denotes compound (I).

Cc1cc(CO)nc2cc3c(cc12)OC(C)(C)[C@H](O)[C@H]3NCCc1ccccc1 [Compound (I), (3R,4S)-7-Hydroxymethyl-2,2,9-trimethyl-4-(phenethylamino)-3,4-dihydro-2H-pyrano[2,3-g]quinoline-3-ol]
cases in which siponimod-induced atrioventricular block was not observed ([1]; 0.3 mg/kg oral gavage, four cases per group): 50% | cases in which siponimod-induced atrioventricular block was not observed ([1]; 1 mg/kg oral gavage, four cases per group): 75% | cases in which siponimod-induced atrioventricular block was suppressed ([1]; 3 mg/kg oral gavage, four cases per group): 100% | siponimod-induced bradycardia (ventricular beating rate / heart rate) ([1]; 3 mg/kg oral gavage, siponimod 0.01 mg/kg i.v.): completely restored; also recorded: completely prevented | onset of siponimod-induced bradyarrhythmia (atrioventricular block) ([1]; 0.3, 1, 3 mg/kg oral gavage, FIG. 3 and FIG. 4): prevented the onset of siponimod-induced bradyarrhythmia (atrioventricular block) in a dose-dependent manner | siponimod-induced bradycardia (ventricular beating rate / heart rate) ([1]; compound (I) 0.3, 1, 3 mg/kg oral gavage before siponimod 0.01 mg/kg i.v. over 10 min, FIG. 3): improved in a dose-dependent manner; also recorded: prevented a reduction in heart rate | siponimod-induced prolongation of QT time ([1]; compound (I) oral gavage 0.3-3 mg/kg): almost completely suppressed | effect on siponimod-induced decrease in beating rate [2]: increased the beating rate and improved bradyarrhythmia
